{"source": "patent EP0126849A1", "about": "“Pharmacologically active N-amino hydantoin derivatives, their synthesis and intermediates” (THE WELLCOME FOUNDATION LIMITED, priority 1983, dated 1984)", "key": {"[1]": {"system": "platelet aggregation", "assay": "Inhibition of platelet aggregation in human platelet-rich plasma (Born-type aggregometer, ADP or other aggregating agent)", "format": "cell-based", "settings": "for IC50: Homo sapiens, Platelet, 1 min, 1 min incubation at 37°C before aggregating agent, read-out: IC50; for IC50 / Potency relative to PGI2: human PRP; for Potency relative to PGI2: 1 min incubation, PGI2 = 1; for Increase on Incubation (min) 5: increase in potency after 5 min incubation in PRP; for Increase on Incubation (min) 10: increase in potency after 10 min incubation in PRP", "protocol": "Human blood was freshly collected into siliconized (Siloclad; Clay Adams) plastic (Sterilin Ltd.) vessels containing trisodium citrate (3.15%; 0.1 volume with 0.9 volume blood) and centrifuged (200 g for 15 min) at room temperature. The platelet-rich plasma (PRP) was withdrawn into plastic containers and kept at room temperature. Inhibition of […] prior to addition of sufficient adenosine diphosphate (ADP) or other aggregating agent to just cause a non-reversing control aggregation. Dose-inhibition curves were constructed for each compound and the ID50 (dose causing 50% inhibition) was calculated as the dose required to reduce the aggregation to 50% of its control amplitude. […] For comparison, also given are the results upon administration of 5-(6-carboxyhexyl)-1-(3-cyclohexyl-3-hydroxypropyl)hydantoin (Compound X) which is disclosed in UK Specification 1,595,694. -\nIn this and subsequent biological examples, where a compound number refers to a single diastereoisomer, a mixture of diastereoisomers is indicated by two compound numbers separated by /."}, "[2]": {"system": "rabbit platelet aggregation", "assay": "Ex vivo rabbit platelet aggregation after i.v. infusion of the hydantoin (ADP 20 µM)", "format": "in vivo, rabbits", "settings": "i.v. infusion for 15 min, blood sample 10 min after start of infusion", "protocol": "Male rabbits (2-2.5 kg body weight) were anaesthetized with sodium pentobarbitone (30 mg/kg, i.v. followed by maintenance doses of 3mg/kg) and systemic arterial blood pressure (BP) was recorded from a cannula filled with\nheparinized saline (5 units/ml) in a carotid artery; no heparin was administered to the animal. Hydantoins were administered via a cannula in a femoral vein. Blood samples (1.5 ml) were slowly collected into a plastic syringe containing tri-sodium citrate (3.18%, 0.15 ml) from a cannula inserted into a femoral artery, shaken gently and transferred to an Eppendorf plastic tube and spun in a modified Eppendorf centrifuge for 2 sec (Model 5412, maximum centrifugal force 10,000 x g). The PRP was collected and a 0.35 ml aliquot was transferred to the aggregometer and incubated at 37°C for 1 minute prior to addition of sufficient ADP (20 µM) to produce near-maximal aggregation. The time-interval between removal of blood samples and the transference of the PRP to the aggregometer was less than 1.5 min.\nBlood samples were removed at 10 min. intervals once the BP of the rabbit had reached steady resting levels, 10-20 min. following the preparative surgical procedures. After three control blood samples had been prepared and the control aggregation of the platelets measured, the hydantoin was infused intravenously for 15 min from a Braun slow-infusion apparatus. Blood samples were collected 10 min after the start of the infusion. Two further 10 min. samples post-infusion were collected prior to commencing further infusions.\nThe following results list values of ED50 and change in blood pressure. For comparison, also given are the results obtained upon administration of PGIZ and Compound X."}, "[3]": {"system": "systemic arterial blood pressure (BP)", "assay": "Concurrent change in systemic arterial blood pressure in anaesthetized rabbits", "format": "in vivo", "settings": "for Δ BP: anaesthetized rabbit, i.v. infusion, at the ED50 dose; for blood pressure depressant activity: at the ED50 doses, rabbit, stated in words", "protocol": "Male rabbits (2-2.5 kg body weight) were anaesthetized with sodium pentobarbitone (30 mg/kg, i.v. followed by maintenance doses of 3mg/kg) and systemic arterial blood pressure (BP) was recorded from a cannula filled with heparinized saline (5 units/ml) in a carotid artery; no heparin was administered to the animal. Hydantoins were administered via a cannula in a femoral vein. Blood samples (1.5 ml) were slowly collected into a plastic syringe containing tri-sodium citrate (3.18%, 0.15 ml) from a cannula inserted into a femoral artery, shaken gently and transferred to an Eppendorf plastic tube and spun in a modified Eppendorf centrifuge for 2 sec (Model 5412, maximum centrifugal force 10,000 x g). The PRP was collected and a 0.35 ml aliquot was transferred to the aggregometer and incubated at 37°C for 1 minute prior to addition of sufficient ADP (20 µM) to produce near-maximal aggregation. The time-interval between removal of blood samples and the transference of the PRP to the aggregometer was less than 1.5 min. […] After three control blood samples had been prepared and the control aggregation of the platelets measured, the hydantoin was infused intravenously for 15 min from a Braun slow-infusion apparatus. Blood samples were collected 10 min after the start of the infusion. Two further 10 min. samples post-infusion were collected prior to commencing further infusions. The following results list values of ED50 and change in blood pressure. For comparison, also given are the results obtained upon administration of PGIZ and Compound X."}, "[4]": {"system": "mean systemic arterial blood pressure (BP)", "assay": "Cardiovascular actions in rats: fall in blood pressure and duration of the hypotensive effect", "format": "in vivo, male Wistar rats", "settings": "for Fall in BP Relative Potency PGE1 / Fall in BP Relative Potency PGI2: anaesthetized rat, i.v. injection; for Fall in BP Relative Potency PGE1: potency ratio against PGE1; for Fall in BP Relative Potency PGI2: potency ratio against PGI2; for Duration t½: time from peak hypotensive response to recovery to half its peak, rat i.v.", "protocol": "Anaesthesia was induced in male Wistar rats (250-300 g body weight) with sodium pentobarbitone (30 mg kg^-1, i.v.) and supplemented (3 mg kg^-1) when required. Arterial pressure was recorded from a cannulated femoral artery and heart rate derived from the arterial pulse. Rectal temperature was maintained at 37°C by thermistor-controlled radiant heat. Each compound was injected into a femoral vein in a volume of 0.25 ml and flushed in with 0.2 ml of saline (0.9% w/v). Dose-response relationships for the fall in mean systemic arterial blood pressure (BP) with the hydantoins were constructed and compared to those obtained with PGI2 and PGE, in the same animal, and a potency ratio calculated. […] Figures for Compound X and PGI2 are listed for comparison."}, "[5]": {"system": "B.P.", "assay": "Cardiovascular studies in the dog: vasodepressor potency and duration", "format": "in vivo, Dogs", "settings": "i.v. bolus", "protocol": "Dogs (10-15 kg body weight) were anaesthetized with chloralose (80 mg/kg i.v.) and maintained with subcutaneous injections of pentobarbitone (3 mg/kg). Drugs were administered via a femoral vein by bolus injection and B.P. was recorded from the right femoral artery. Results give vasodepressor potency and t1 2 duration. Figures for Compound X are provided for comparison."}, "[6]": {"system": "acid-ethanol induced gastric lesions", "assay": "Inhibition of acid-ethanol induced gastric lesions in rats (cytoprotection)", "format": "in vivo", "settings": "rat, oral", "protocol": "The inhibition of acid-ethanol induced gastric lesions in rats (cytoprotection) was measured for various doses of orally administered hydantoin. Figures for compound X are given for comparison."}, "[7]": {"settings": "Dose 1.25 ug kg^-1, duration of vasodepressor effect"}}}
{"smiles": "O=C(O)CCCCCCC1C(=O)NC(=O)N1N=CC(O)C1CCCCC1", "note": "(single isomer, unassigned) [Compound No. 6, 5-(6-carboxyhe-xyl)-1-(2-cyclohexyl-2-hydroxyethylideneamino)hydantoin]", "values": [{"measurement": "IC50", "setting": "[1]", "result": 2, "unit": "ng/mL"}, {"measurement": "Potency relative to PGI2", "setting": "[1]", "result": 0.30}, {"measurement": "Increase on Incubation (min) 5", "setting": "[1]", "result": "x5"}, {"measurement": "Increase on Incubation (min) 10", "setting": "[1]", "result": "x20"}, {"measurement": "ED50", "setting": "[2]", "result": 0.15, "unit": "µg/kg/min"}, {"measurement": "Δ BP", "setting": "[3]", "result": 0, "unit": "mmHg"}, {"measurement": "blood pressure depressant activity", "setting": "[3]", "result": "no significant blood pressure depressant activity"}, {"measurement": "Fall in BP Relative Potency PGE1", "setting": "[4]", "result": 0.5}, {"measurement": "Fall in BP Relative Potency PGI2", "setting": "[4]", "result": 0.041}, {"measurement": "Duration t½", "setting": "[4]", "result": 17.0, "unit": "min"}, {"measurement": "Δ BP", "setting": "[5]; Dose 0.625 ug kg^-1", "result": -54, "unit": "mm Hg"}, {"measurement": "t1/2", "setting": "[5]; Dose 0.625 ug kg^-1, duration of vasodepressor effect", "result": 60, "unit": "min"}, {"measurement": "Δ BP", "setting": "[5]; Dose 1.25 ug kg^-1", "result": -65, "unit": "mm Hg"}, {"measurement": "t1/2", "setting": "[5]; [7]", "result": ">60", "unit": "min"}, {"measurement": "% inhibition", "setting": "[6]; Dose 10 μg kg^-1", "result": "31 ± 20", "unit": "%"}, {"measurement": "% inhibition", "setting": "[6]; Dose 25 μg kg^-1", "result": "50 ± 21", "unit": "%"}, {"measurement": "% inhibition", "setting": "[6]; Dose 50 μg kg^-1", "result": "69 ± 8", "unit": "%"}]}
{"smiles": "O=C(O)CCCCCCC1C(=O)NC(=O)N1N=CC(O)C1CCCCC1", "note": "(centres unmarked) [Compound No. 3, 5-(6-carboxyhexyl)-1-(2-cyclohexyl-2-hydroxy-ethylideneamino)hydantoin]", "values": [{"measurement": "IC50", "setting": "[1]", "result": 16, "unit": "ng/mL"}, {"measurement": "Potency relative to PGI2", "setting": "[1]", "result": 0.02}, {"measurement": "Increase on Incubation (min) 5", "setting": "[1]", "result": "x7"}, {"measurement": "Increase on Incubation (min) 10", "setting": "[1]", "result": "x20"}, {"measurement": "ED50", "setting": "[2]", "result": 2.0, "unit": "µg/kg/min"}, {"measurement": "Δ BP", "setting": "[3]", "result": 0, "unit": "mmHg"}, {"measurement": "blood pressure depressant activity", "setting": "[3]", "result": "no significant blood pressure depressant activity"}, {"measurement": "Fall in BP Relative Potency PGE1", "setting": "[4]", "result": 0.324}, {"measurement": "Fall in BP Relative Potency PGI2", "setting": "[4]", "result": 0.027}, {"measurement": "Duration t½", "setting": "[4]", "result": 11.0, "unit": "min"}]}
{"smiles": "O=C(O)CCCCCCC1C(=O)NC(=O)N1CCC(O)C1CCCCC1", "note": "(centres unmarked) [Compound X, 5-(6-carboxyhexyl)-1-(3-cyclohexyl-3-hydroxypropyl)hydantoin, reference compound]", "values": [{"measurement": "IC50", "setting": "[1]", "result": 1.5, "unit": "ng/mL"}, {"measurement": "Potency relative to PGI2", "setting": "[1]", "result": 0.21}, {"measurement": "Increase on Incubation (min) 5", "setting": "[1]", "result": "x2"}, {"measurement": "Increase on Incubation (min) 10", "setting": "[1]", "result": "x3"}, {"measurement": "ED50", "setting": "[2]", "result": 3.3, "unit": "µg/kg/min"}, {"measurement": "Δ BP", "setting": "[3]", "result": -5, "unit": "mmHg"}, {"measurement": "Fall in BP Relative Potency PGE1", "setting": "[4]", "result": 0.72}, {"measurement": "Fall in BP Relative Potency PGI2", "setting": "[4]", "result": 0.06}, {"measurement": "Duration t½", "setting": "[4]", "result": 4.0, "unit": "min"}, {"measurement": "Δ BP", "setting": "[5]; Dose 1.25 ug kg^-1", "result": -45, "unit": "mm Hg"}, {"measurement": "t1/2", "setting": "[5]; [7]", "result": 2.8, "unit": "min"}, {"measurement": "Δ BP", "setting": "[5]; Dose 2.5 ug kg^-1", "result": -56, "unit": "mm Hg"}, {"measurement": "t1/2", "setting": "[5]; Dose 2.5 ug kg^-1, duration of vasodepressor effect", "result": 6.2, "unit": "min"}, {"measurement": "% inhibition", "setting": "[6]; Dose 5 μg kg^-1", "result": "46 ± 26", "unit": "%"}, {"measurement": "% inhibition", "setting": "[6]; Dose 10 μg kg^-1", "result": "80 ± 9", "unit": "%"}, {"measurement": "% inhibition", "setting": "[6]; Dose 25 μg kg^-1", "result": "89 ± 6", "unit": "%"}]}
{"smiles": "CCCCC[C@H](O)/C=C/[C@@H]1[C@H]2C/C(=C/CCCC(=O)O)O[C@H]2C[C@H]1O", "note": "[PGI2, reference compound]", "values": [{"measurement": "ED50", "setting": "[2]", "result": 0.2, "unit": "µg/kg/min"}, {"measurement": "Δ BP", "setting": "[3]", "result": -20, "unit": "mmHg"}, {"measurement": "Fall in BP Relative Potency PGE1", "setting": "[4]", "result": 11.0}, {"measurement": "Duration t½", "setting": "[4]", "result": 0.3, "unit": "min"}]}
